Reference: PubChem BioAssay (NCI)
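Tested at 5 concentrations; 48 h exposure; 96-well plates; endpoints linearly interpolated, else capped at highest concentration. Definition used: TGI = concentration required for complete inhibition of growth.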

What was measured:
Experiment in all cases: growth of human tumour cells (NCI), 48 h
MOLT-4 leukemia = tested on: MOLT-4 leukemia
HOP-62 NSCLC = tested on: HOP-62 NSCLC
HT29 colon = tested on: HT29 colon
UO-31 renal = tested on: UO-31 renal
SF-295 CNS = tested on: SF-295 CNS
KM20L2 colon = tested on: KM20L2 colon
NCI-H522 lung = tested on: NCI-H522 lung
SNB-78 CNS = tested on: SNB-78 CNS
MALME-3M melanoma = tested on: MALME-3M melanoma
M19-MEL melanoma = tested on: M19-MEL melanoma
DLD-1 colon = tested on: DLD-1 colon
K-562 leukemia = tested on: K-562 leukemia
HL-60(TB) leukemia = tested on: HL-60(TB) leukemia
SK-MEL-28 melanoma = tested on: SK-MEL-28 melanoma
HCT-116 colon = tested on: HCT-116 colon
HCT-15 colon = tested on: HCT-15 colon
TK-10 renal = tested on: TK-10 renal
UACC-257 melanoma = tested on: UACC-257 melanoma
HOP-92 NSCLC = tested on: HOP-92 NSCLC
DMS 114 small cell lung = tested on: DMS 114 small cell lung
EKVX NSCLC = tested on: EKVX NSCLC
SF-268 CNS = tested on: SF-268 CNS
RPMI-8226 leukemia = tested on: RPMI-8226 leukemia
786-0 renal = tested on: 786-0 renal
DMS 273 small cell lung = tested on: DMS 273 small cell lung
SK-OV-3 ovarian = tested on: SK-OV-3 ovarian
COLO 205 colon = tested on: COLO 205 colon
OVCAR-5 ovarian = tested on: OVCAR-5 ovarian
SK-MEL-2 melanoma = tested on: SK-MEL-2 melanoma
XF 498 CNS = tested on: XF 498 CNS
CAKI-1 renal = tested on: CAKI-1 renal
SK-MEL-5 melanoma = tested on: SK-MEL-5 melanoma
A498 renal = tested on: A498 renal
NCI-H226 lung = tested on: NCI-H226 lung
CCRF-CEM leukemia = tested on: CCRF-CEM leukemia
U251 CNS = tested on: U251 CNS
NCI-H460 lung = tested on: NCI-H460 lung
SN12C renal = tested on: SN12C renal
SNB-19 CNS = tested on: SNB-19 CNS
RXF 393 renal = tested on: RXF 393 renal
SW-620 colon = tested on: SW-620 colon
SF-539 CNS = tested on: SF-539 CNS
A549 NSCLC = tested on: A549 NSCLC
OVCAR-3 ovarian = tested on: OVCAR-3 ovarian
M14 melanoma = tested on: M14 melanoma
OVCAR-4 ovarian = tested on: OVCAR-4 ovarian
NCI-H23 lung = tested on: NCI-H23 lung
SNB-75 CNS = tested on: SNB-75 CNS
LOX IMVI melanoma = tested on: LOX IMVI melanoma
KM12 colon = tested on: KM12 colon
OVCAR-8 ovarian = tested on: OVCAR-8 ovarian
IGROV1 ovarian = tested on: IGROV1 ovarian
UACC-62 melanoma = tested on: UACC-62 melanoma
ACHN renal = tested on: ACHN renal
HCC-2998 colon = tested on: HCC-2998 colon
LXFL 529 NSCLC = tested on: LXFL 529 NSCLC
HOP-18 NSCLC = tested on: HOP-18 NSCLC
RXF-631 renal = tested on: RXF-631 renal

COc1cc(CC2c3cc(OC)c(OC)cc3CCN2C)c(Oc2cc3c(cc2OC)-c2c(OC)c(OC)c(OC)c4c2C(C3)N(C)CC4)cc1OC (stereo unspecified)
TGI (MOLT-4 leukemia): > 42.5 µM | TGI (HOP-62 NSCLC): 31.3 µM | TGI (HT29 colon): > 36.5 µM | TGI (UO-31 renal): 22.1 µM | TGI (SF-295 CNS): 28.8 µM | TGI (KM20L2 colon): 17.8 µM | TGI (NCI-H522 lung): 24.5 µM | TGI (SNB-78 CNS): 34.5 µM | TGI (MALME-3M melanoma): 6.67 µM | TGI (M19-MEL melanoma): 28.6 µM | TGI (DLD-1 colon): 29.8 µM | TGI (K-562 leukemia): > 30.5 µM | TGI (HL-60(TB) leukemia): > 100 µM | TGI (SK-MEL-28 melanoma): 22.8 µM | TGI (HCT-116 colon): 24.3 µM | TGI (HCT-15 colon): 23.4 µM | TGI (TK-10 renal): 29.5 µM | TGI (UACC-257 melanoma): 13.6 µM | TGI (HOP-92 NSCLC): 20.9 µM | TGI (DMS 114 small cell lung): 26 µM | TGI (EKVX NSCLC): 31.1 µM | TGI (SF-268 CNS): 32.8 µM | TGI (RPMI-8226 leukemia): > 45.7 µM | TGI (786-0 renal): 21.5 µM | TGI (DMS 273 small cell lung): 26.2 µM | TGI (SK-OV-3 ovarian): 35 µM | TGI (COLO 205 colon): 20.9 µM | TGI (OVCAR-5 ovarian): 30.6 µM | TGI (SK-MEL-2 melanoma): 28.8 µM | TGI (XF 498 CNS): 26.6 µM | TGI (CAKI-1 renal): 32.1 µM | TGI (SK-MEL-5 melanoma): 13.4 µM | TGI (A498 renal): 28.8 µM | TGI (NCI-H226 lung): 32.7 µM | TGI (CCRF-CEM leukemia): > 50.9 µM | TGI (U251 CNS): 26 µM | TGI (NCI-H460 lung): 32.7 µM | TGI (SN12C renal): 28.6 µM | TGI (SNB-19 CNS): 43.3 µM | TGI (RXF 393 renal): 14.9 µM | TGI (SW-620 colon): 30.7 µM | TGI (SF-539 CNS): 25.8 µM | TGI (A549 NSCLC): 30.6 µM | TGI (OVCAR-3 ovarian): 28.2 µM | TGI (M14 melanoma): 5.76 µM | TGI (OVCAR-4 ovarian): 33.1 µM | TGI (NCI-H23 lung): 34.9 µM | TGI (SNB-75 CNS): 25 µM | TGI (LOX IMVI melanoma): 22.6 µM | TGI (KM12 colon): 29.3 µM | TGI (OVCAR-8 ovarian): 32 µM | TGI (IGROV1 ovarian): 29.9 µM | TGI (UACC-62 melanoma): 29.1 µM | TGI (ACHN renal): 30.9 µM | TGI (HCC-2998 colon): 13.7 µM | TGI (LXFL 529 NSCLC): 27.1 µM | TGI (HOP-18 NSCLC): 31.1 µM

Cc1ccc(N2C(=O)/C(=C3\Sc4c(nc(C)[nH]c4=O)N3c3ccccc3)SC2=S)cc1
TGI (HOP-62 NSCLC): 25.9 µM | TGI (HT29 colon): > 100 µM | TGI (UO-31 renal): 92.1 µM | TGI (SF-295 CNS): 54.8 µM | TGI (KM20L2 colon): > 100 µM | TGI (NCI-H522 lung): > 100 µM | TGI (SNB-78 CNS): > 100 µM | TGI (MALME-3M melanoma): > 100 µM | TGI (M19-MEL melanoma): > 100 µM | TGI (DLD-1 colon): > 100 µM | TGI (K-562 leukemia): 95.8 µM | TGI (HL-60(TB) leukemia): > 100 µM | TGI (SK-MEL-28 melanoma): > 100 µM | TGI (HCT-116 colon): > 100 µM | TGI (HCT-15 colon): > 100 µM | TGI (TK-10 renal): 59.2 µM | TGI (UACC-257 melanoma): > 100 µM | TGI (HOP-92 NSCLC): 97.3 µM | TGI (DMS 114 small cell lung): > 100 µM | TGI (EKVX NSCLC): > 100 µM | TGI (SF-268 CNS): > 100 µM | TGI (RPMI-8226 leukemia): > 100 µM | TGI (786-0 renal): 25.3 µM | TGI (DMS 273 small cell lung): > 100 µM | TGI (SK-OV-3 ovarian): 53.5 µM | TGI (COLO 205 colon): > 100 µM | TGI (OVCAR-5 ovarian): > 100 µM | TGI (SK-MEL-2 melanoma): > 100 µM | TGI (XF 498 CNS): 51.8 µM | TGI (CAKI-1 renal): > 100 µM | TGI (SK-MEL-5 melanoma): > 100 µM | TGI (A498 renal): 88.2 µM | TGI (NCI-H226 lung): 86.6 µM | TGI (CCRF-CEM leukemia): > 100 µM | TGI (U251 CNS): 37.9 µM | TGI (NCI-H460 lung): > 100 µM | TGI (SN12C renal): > 100 µM | TGI (SNB-19 CNS): > 100 µM | TGI (SW-620 colon): > 100 µM | TGI (SF-539 CNS): 29.5 µM | TGI (A549 NSCLC): > 100 µM | TGI (OVCAR-3 ovarian): 47.7 µM | TGI (M14 melanoma): > 100 µM | TGI (OVCAR-4 ovarian): > 100 µM | TGI (NCI-H23 lung): 56.7 µM | TGI (SNB-75 CNS): 56.4 µM | TGI (LOX IMVI melanoma): 70.7 µM | TGI (OVCAR-8 ovarian): > 100 µM | TGI (IGROV1 ovarian): > 100 µM | TGI (UACC-62 melanoma): > 100 µM | TGI (ACHN renal): > 100 µM | TGI (LXFL 529 NSCLC): > 100 µM

Cc1nc(C(N)=S)sc1C(=O)/C=C/c1cccc(O)c1
TGI (MOLT-4 leukemia): > 100 µM | TGI (HOP-62 NSCLC): > 100 µM | TGI (HT29 colon): > 100 µM | TGI (UO-31 renal): > 100 µM | TGI (SF-295 CNS): > 100 µM | TGI (KM20L2 colon): > 100 µM | TGI (NCI-H522 lung): > 100 µM | TGI (SNB-78 CNS): > 100 µM | TGI (MALME-3M melanoma): > 100 µM | TGI (M19-MEL melanoma): > 100 µM | TGI (DLD-1 colon): > 100 µM | TGI (K-562 leukemia): 78.3 µM | TGI (HL-60(TB) leukemia): > 100 µM | TGI (SK-MEL-28 melanoma): > 100 µM | TGI (HCT-15 colon): > 100 µM | TGI (TK-10 renal): > 100 µM | TGI (UACC-257 melanoma): > 100 µM | TGI (HOP-92 NSCLC): > 100 µM | TGI (DMS 114 small cell lung): > 100 µM | TGI (RXF-631 renal): > 100 µM | TGI (EKVX NSCLC): > 100 µM | TGI (SF-268 CNS): > 100 µM | TGI (RPMI-8226 leukemia): > 100 µM | TGI (786-0 renal): > 100 µM | TGI (DMS 273 small cell lung): > 100 µM | TGI (SK-OV-3 ovarian): > 100 µM | TGI (COLO 205 colon): > 100 µM | TGI (OVCAR-5 ovarian): > 100 µM | TGI (SK-MEL-2 melanoma): > 100 µM | TGI (CAKI-1 renal): > 100 µM | TGI (SK-MEL-5 melanoma): > 100 µM | TGI (A498 renal): > 100 µM | TGI (NCI-H226 lung): > 100 µM | TGI (CCRF-CEM leukemia): 89.2 µM | TGI (U251 CNS): > 100 µM | TGI (NCI-H460 lung): > 100 µM | TGI (SN12C renal): > 100 µM | TGI (RXF 393 renal): > 100 µM | TGI (SW-620 colon): > 100 µM | TGI (SF-539 CNS): > 100 µM | TGI (A549 NSCLC): > 100 µM | TGI (OVCAR-3 ovarian): > 100 µM | TGI (NCI-H23 lung): > 100 µM | TGI (SNB-75 CNS): > 100 µM | TGI (LOX IMVI melanoma): > 100 µM | TGI (KM12 colon): > 100 µM | TGI (OVCAR-8 ovarian): > 100 µM | TGI (IGROV1 ovarian): > 100 µM | TGI (UACC-62 melanoma): > 100 µM | TGI (ACHN renal): > 100 µM | TGI (HCC-2998 colon): > 100 µM | TGI (HOP-18 NSCLC): > 100 µM
